Measurements published in ChEMBL document CHEMBL1909046, “DrugMatrix in vitro pharmacology data”.

System: not listed separately
Experiment: DRUGMATRIX: Calcium Channel Type L, Dihydropyridine radioligand binding (ligand: [3H] Nitrendipine)
Format: cell membranes, Rattus norvegicus, Wistar, Cerebral cortex, Membrane
Details: Not Active = under 50% inhibition at 10 µM

Compound | IC50 | Ki
CN1C[C@@H]2C[C@H]1CN2c1cc2c(cc1F)c(=O)c(C(=O)O)cn2C1CC1 [DANOFLOXACIN] | Not Active | Not Active
COc1cccc2c1C(=O)c1c(O)c3c(c(O)c1C2=O)C[C@@](O)(C(C)=O)C[C@@H]3O[C@H]1C[C@H](N)[C@H](O)[C@H](C)O1 [DAUNORUBICIN] | Not Active | Not Active
O=C(O)c1cc(-c2ccc(F)cc2F)ccc1O [DIFLUNISAL] | Not Active | Not Active
C[S+](C)[O-] [DIMETHYL SULFOXIDE] | Not Active | Not Active
CC1=NN(c2ccccc2)C(=O)C1 [EDARAVONE] | Not Active | Not Active
CC(C)C[C@H]1C(=O)N2CCC[C@H]2[C@]2(O)O[C@](NC(=O)[C@@H]3C=C4c5cccc6[nH]cc(c56)C[C@H]4N(C)C3)(C(C)C)C(=O)N12 [ERGOCRYPTINE] | Not Active | Not Active

Biological target: Sigma non-opioid intracellular receptor 1 (Homo sapiens, UniProt Q99720)
Sequence (Q99720 whole entry): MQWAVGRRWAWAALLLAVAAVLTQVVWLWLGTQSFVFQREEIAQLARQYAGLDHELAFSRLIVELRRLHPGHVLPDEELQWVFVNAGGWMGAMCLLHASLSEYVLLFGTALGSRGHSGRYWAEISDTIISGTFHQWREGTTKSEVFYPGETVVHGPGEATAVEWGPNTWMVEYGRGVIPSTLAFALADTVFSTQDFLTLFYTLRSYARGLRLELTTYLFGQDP
Experiment: DRUGMATRIX: Sigma1 radioligand binding (ligand: [3H] Haloperidol)
Format: cell membranes, Jurkat, Membrane
Details: jurkat; Not Active = under 50% inhibition at 10 µM

Compound | IC50
CN1C[C@@H]2C[C@H]1CN2c1cc2c(cc1F)c(=O)c(C(=O)O)cn2C1CC1 [DANOFLOXACIN] | Not Active
COc1cccc2c1C(=O)c1c(O)c3c(c(O)c1C2=O)C[C@@](O)(C(C)=O)C[C@@H]3O[C@H]1C[C@H](N)[C@H](O)[C@H](C)O1 [DAUNORUBICIN] | Not Active
O=C(O)c1cc(-c2ccc(F)cc2F)ccc1O [DIFLUNISAL] | Not Active
C[S+](C)[O-] [DIMETHYL SULFOXIDE] | Not Active
CC1=NN(c2ccccc2)C(=O)C1 [EDARAVONE] | Not Active
CC(C)C[C@H]1C(=O)N2CCC[C@H]2[C@]2(O)O[C@](NC(=O)[C@@H]3C=C4c5cccc6[nH]cc(c56)C[C@H]4N(C)C3)(C(C)C)C(=O)N12 [ERGOCRYPTINE] | Not Active

Biological target: C-C chemokine receptor type 5 (Homo sapiens, UniProt P51681); note: in other assays of this panel Not Active means under 50% inhibition at 10 µM
Sequence (P51681 whole entry): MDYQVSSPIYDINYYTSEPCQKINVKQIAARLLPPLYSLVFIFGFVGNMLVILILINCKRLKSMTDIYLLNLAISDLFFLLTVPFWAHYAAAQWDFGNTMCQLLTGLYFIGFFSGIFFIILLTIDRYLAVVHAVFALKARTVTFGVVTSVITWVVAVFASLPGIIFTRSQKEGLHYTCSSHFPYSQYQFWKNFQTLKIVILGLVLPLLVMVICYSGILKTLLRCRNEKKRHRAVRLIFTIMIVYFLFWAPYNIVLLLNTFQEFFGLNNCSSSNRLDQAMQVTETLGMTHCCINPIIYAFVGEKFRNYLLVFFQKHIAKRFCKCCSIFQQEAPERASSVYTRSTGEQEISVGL
Format: cell membranes, Membrane
Details: hek293

Compound | IC50
CN1C[C@@H]2C[C@H]1CN2c1cc2c(cc1F)c(=O)c(C(=O)O)cn2C1CC1 [DANOFLOXACIN] | Not Active
COc1cccc2c1C(=O)c1c(O)c3c(c(O)c1C2=O)C[C@@](O)(C(C)=O)C[C@@H]3O[C@H]1C[C@H](N)[C@H](O)[C@H](C)O1 [DAUNORUBICIN] | Not Active
O=C(O)c1cc(-c2ccc(F)cc2F)ccc1O [DIFLUNISAL] | Not Active
C[S+](C)[O-] [DIMETHYL SULFOXIDE] | Not Active
CC1=NN(c2ccccc2)C(=O)C1 [EDARAVONE] | Not Active
CC(C)C[C@H]1C(=O)N2CCC[C@H]2[C@]2(O)O[C@](NC(=O)[C@@H]3C=C4c5cccc6[nH]cc(c56)C[C@H]4N(C)C3)(C(C)C)C(=O)N12 [ERGOCRYPTINE] | Not Active

Biological target: T1, C-X-C chemokine receptor type 2 (Homo sapiens, UniProt P25025); note: in other assays of this panel Not Active means under 50% inhibition at 10 µM
T1 sequence (P25025 whole entry): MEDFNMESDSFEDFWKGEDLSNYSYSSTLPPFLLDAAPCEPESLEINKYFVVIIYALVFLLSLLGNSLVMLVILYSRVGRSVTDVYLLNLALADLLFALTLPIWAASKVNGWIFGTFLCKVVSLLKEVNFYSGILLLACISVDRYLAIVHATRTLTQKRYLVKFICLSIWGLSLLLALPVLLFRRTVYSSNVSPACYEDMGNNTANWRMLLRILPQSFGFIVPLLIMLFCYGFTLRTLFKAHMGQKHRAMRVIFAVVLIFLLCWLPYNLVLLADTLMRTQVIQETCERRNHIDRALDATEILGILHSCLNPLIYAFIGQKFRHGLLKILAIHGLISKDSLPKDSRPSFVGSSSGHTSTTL
Format: cell membranes, Membrane
Details: cho-k1

Compound | IC50
CN1C[C@@H]2C[C@H]1CN2c1cc2c(cc1F)c(=O)c(C(=O)O)cn2C1CC1 [DANOFLOXACIN] | Not Active
COc1cccc2c1C(=O)c1c(O)c3c(c(O)c1C2=O)C[C@@](O)(C(C)=O)C[C@@H]3O[C@H]1C[C@H](N)[C@H](O)[C@H](C)O1 [DAUNORUBICIN] | Not Active
O=C(O)c1cc(-c2ccc(F)cc2F)ccc1O [DIFLUNISAL] | Not Active
C[S+](C)[O-] [DIMETHYL SULFOXIDE] | Not Active
CC1=NN(c2ccccc2)C(=O)C1 [EDARAVONE] | Not Active
CC(C)C[C@H]1C(=O)N2CCC[C@H]2[C@]2(O)O[C@](NC(=O)[C@@H]3C=C4c5cccc6[nH]cc(c56)C[C@H]4N(C)C3)(C(C)C)C(=O)N12 [ERGOCRYPTINE] | Not Active

Biological target: T2, Neuropeptide Y receptor type 2 (Homo sapiens, UniProt P49146); note: in other assays of this panel Not Active means under 50% inhibition at 10 µM
T2 sequence (P49146 whole entry): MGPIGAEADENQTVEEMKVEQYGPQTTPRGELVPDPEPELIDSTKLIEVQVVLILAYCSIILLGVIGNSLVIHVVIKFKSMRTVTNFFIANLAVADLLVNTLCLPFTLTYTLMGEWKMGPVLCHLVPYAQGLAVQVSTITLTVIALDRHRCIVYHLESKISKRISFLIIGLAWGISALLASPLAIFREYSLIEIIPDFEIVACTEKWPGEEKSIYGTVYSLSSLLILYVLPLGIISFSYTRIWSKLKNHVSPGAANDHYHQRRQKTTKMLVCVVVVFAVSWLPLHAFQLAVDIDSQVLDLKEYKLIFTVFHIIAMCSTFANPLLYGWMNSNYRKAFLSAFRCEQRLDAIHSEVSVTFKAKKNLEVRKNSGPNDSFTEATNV
Format: cell membranes, Membrane
Details: kan-ts

Compound | IC50
CN1C[C@@H]2C[C@H]1CN2c1cc2c(cc1F)c(=O)c(C(=O)O)cn2C1CC1 [DANOFLOXACIN] | Not Active
COc1cccc2c1C(=O)c1c(O)c3c(c(O)c1C2=O)C[C@@](O)(C(C)=O)C[C@@H]3O[C@H]1C[C@H](N)[C@H](O)[C@H](C)O1 [DAUNORUBICIN] | Not Active
O=C(O)c1cc(-c2ccc(F)cc2F)ccc1O [DIFLUNISAL] | Not Active
C[S+](C)[O-] [DIMETHYL SULFOXIDE] | Not Active
CC1=NN(c2ccccc2)C(=O)C1 [EDARAVONE] | Not Active
CC(C)C[C@H]1C(=O)N2CCC[C@H]2[C@]2(O)O[C@](NC(=O)[C@@H]3C=C4c5cccc6[nH]cc(c56)C[C@H]4N(C)C3)(C(C)C)C(=O)N12 [ERGOCRYPTINE] | Not Active

Biological target: T3, Nitric oxide synthase, inducible (Mus musculus, UniProt P29477);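 note: inhibition of iNOS enzyme activity measured with L-arginine as substrate; in other assays of this panel Not Active means under 50% inhibition at 10 µM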
T3 sequence (P29477 whole entry): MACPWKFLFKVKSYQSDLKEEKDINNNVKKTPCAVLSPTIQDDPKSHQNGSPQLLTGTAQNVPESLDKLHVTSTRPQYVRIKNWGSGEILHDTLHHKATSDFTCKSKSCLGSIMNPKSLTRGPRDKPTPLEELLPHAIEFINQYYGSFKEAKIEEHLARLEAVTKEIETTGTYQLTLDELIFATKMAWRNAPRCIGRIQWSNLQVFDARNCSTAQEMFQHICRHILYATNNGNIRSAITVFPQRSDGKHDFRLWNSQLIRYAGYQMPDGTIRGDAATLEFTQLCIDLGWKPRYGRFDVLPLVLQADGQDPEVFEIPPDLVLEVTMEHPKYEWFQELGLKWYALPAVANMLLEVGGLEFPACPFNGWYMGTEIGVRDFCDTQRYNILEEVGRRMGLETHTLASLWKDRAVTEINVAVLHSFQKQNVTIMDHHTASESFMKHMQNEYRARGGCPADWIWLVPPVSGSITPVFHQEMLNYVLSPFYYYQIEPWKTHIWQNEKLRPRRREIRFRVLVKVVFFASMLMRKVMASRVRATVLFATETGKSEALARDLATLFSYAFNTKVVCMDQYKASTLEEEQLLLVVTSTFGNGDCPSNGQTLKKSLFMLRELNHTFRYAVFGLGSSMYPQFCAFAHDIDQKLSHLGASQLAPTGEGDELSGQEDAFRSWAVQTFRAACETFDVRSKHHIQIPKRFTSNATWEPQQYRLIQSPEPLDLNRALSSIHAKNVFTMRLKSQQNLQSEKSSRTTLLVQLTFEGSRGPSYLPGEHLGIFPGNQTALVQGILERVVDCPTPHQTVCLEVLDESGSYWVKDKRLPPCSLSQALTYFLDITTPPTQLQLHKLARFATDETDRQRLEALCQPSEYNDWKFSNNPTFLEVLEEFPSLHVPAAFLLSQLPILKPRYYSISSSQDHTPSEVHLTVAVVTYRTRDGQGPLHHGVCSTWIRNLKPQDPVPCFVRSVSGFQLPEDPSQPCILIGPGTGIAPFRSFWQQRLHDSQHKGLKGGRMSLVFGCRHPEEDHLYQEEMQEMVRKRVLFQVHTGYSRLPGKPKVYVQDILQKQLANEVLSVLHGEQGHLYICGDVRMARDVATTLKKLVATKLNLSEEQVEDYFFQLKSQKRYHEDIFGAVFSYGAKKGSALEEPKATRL
Design: species or system Escherichia coli
Details: not given

Compound | IC50
CN1C[C@@H]2C[C@H]1CN2c1cc2c(cc1F)c(=O)c(C(=O)O)cn2C1CC1 [DANOFLOXACIN] | Not Active
COc1cccc2c1C(=O)c1c(O)c3c(c(O)c1C2=O)C[C@@](O)(C(C)=O)C[C@@H]3O[C@H]1C[C@H](N)[C@H](O)[C@H](C)O1 [DAUNORUBICIN] | Not Active
O=C(O)c1cc(-c2ccc(F)cc2F)ccc1O [DIFLUNISAL] | Not Active
C[S+](C)[O-] [DIMETHYL SULFOXIDE] | Not Active
CC1=NN(c2ccccc2)C(=O)C1 [EDARAVONE] | Not Active
CC(C)C[C@H]1C(=O)N2CCC[C@H]2[C@]2(O)O[C@](NC(=O)[C@@H]3C=C4c5cccc6[nH]cc(c56)C[C@H]4N(C)C3)(C(C)C)C(=O)N12 [ERGOCRYPTINE] | Not Active

Biological target: T4, Neutrophil elastase (Homo sapiens, UniProt P08246)
T4 sequence (P08246 whole entry): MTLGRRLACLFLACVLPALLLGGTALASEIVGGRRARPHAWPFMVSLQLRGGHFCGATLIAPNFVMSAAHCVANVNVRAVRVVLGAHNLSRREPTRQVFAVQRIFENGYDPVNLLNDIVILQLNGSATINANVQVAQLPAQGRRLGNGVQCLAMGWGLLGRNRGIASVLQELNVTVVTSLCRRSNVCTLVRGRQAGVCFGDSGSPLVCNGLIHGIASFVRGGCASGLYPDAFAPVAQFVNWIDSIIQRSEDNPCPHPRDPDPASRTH
Format: tissue-based
Details: not given

Compound | IC50
CN1C[C@@H]2C[C@H]1CN2c1cc2c(cc1F)c(=O)c(C(=O)O)cn2C1CC1 [DANOFLOXACIN] | Not Active
COc1cccc2c1C(=O)c1c(O)c3c(c(O)c1C2=O)C[C@@](O)(C(C)=O)C[C@@H]3O[C@H]1C[C@H](N)[C@H](O)[C@H](C)O1 [DAUNORUBICIN] | Not Active
O=C(O)c1cc(-c2ccc(F)cc2F)ccc1O [DIFLUNISAL] | Not Active
C[S+](C)[O-] [DIMETHYL SULFOXIDE] | Not Active
CC1=NN(c2ccccc2)C(=O)C1 [EDARAVONE] | Not Active
CC(C)C[C@H]1C(=O)N2CCC[C@H]2[C@]2(O)O[C@](NC(=O)[C@@H]3C=C4c5cccc6[nH]cc(c56)C[C@H]4N(C)C3)(C(C)C)C(=O)N12 [ERGOCRYPTINE] | Not Active
